This is an account of results in patent US8318780B2 (Intermune, Inc., priority 2009, dated 2012).

Where only a bound is given, the exact number is not on record here.

A short description of data set [1]: Phase 1 open-label study of the impact of fluvoxamine on the pharmacokinetics of pirfenidone in healthy subjects. To be noted: for Ratio of Day 11 AUC0-∞ to Day 1 AUC0-∞, Mean (SD) / Ratio of Day 11 AUC0-∞ to Day 1 AUC0-∞, Median (25th-75th): Day 11 with fluvoxamine vs Day 1 without; for AUC0-∞, Mean (SD) / AUC0-∞, Median (25th-75th): single 801-mg dose of pirfenidone, healthy subjects, n = 51, plasma.
Description: Study Design. The study was a Phase 1, open-label, parallel-group study in healthy subjects. Fifty-four subjects were to be enrolled in two groups, consisting of 27 subjects who were smokers (Group 1) and 27 subjects who were nonsmokers (Group 2). […] Each group (smokers and nonsmokers) was to include a minimum of nine females and nine males, and attempts were to be made to enroll equal numbers of each sex in each group.

Data set [2] has as its system multiple other CYPs (1A1, 2A6, 2B6, 2C8, 2C9, 2C18, 2C19, 2D6, 2E1, 2J2, 3A4, 3A5, 4A11, and 4F2). Description: In vitro metabolism of pirfenidone by CYP isoforms. To be noted: each isoform. The class given is in vitro ADME. An excerpt: There are no unique human metabolites.
Another data set has as its target T1, CYP1A2 (Homo sapiens, UniProt P05177).
T1 sequence (P05177 1-516): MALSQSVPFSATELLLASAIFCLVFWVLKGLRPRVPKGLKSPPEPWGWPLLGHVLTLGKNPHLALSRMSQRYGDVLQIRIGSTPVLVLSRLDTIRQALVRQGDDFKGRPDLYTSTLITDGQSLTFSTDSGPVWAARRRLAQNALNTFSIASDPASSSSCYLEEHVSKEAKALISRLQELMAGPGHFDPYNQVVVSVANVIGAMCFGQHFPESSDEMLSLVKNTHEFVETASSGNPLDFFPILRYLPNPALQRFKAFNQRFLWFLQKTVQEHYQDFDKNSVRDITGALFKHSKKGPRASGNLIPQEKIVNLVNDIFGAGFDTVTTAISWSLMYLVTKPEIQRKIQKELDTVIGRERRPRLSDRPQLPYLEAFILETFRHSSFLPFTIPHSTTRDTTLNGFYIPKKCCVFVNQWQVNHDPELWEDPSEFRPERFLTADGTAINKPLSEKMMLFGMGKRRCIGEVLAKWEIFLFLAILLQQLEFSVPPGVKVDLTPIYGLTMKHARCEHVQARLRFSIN
The experiment in a line: In vitro metabolism of pirfenidone by CYP isoforms. The class given is in vitro ADME.

Where [3] appears, read: Study Day 11: Post-Fluvoxamine (fluvoxamine Days 2-11).

For the molecule `O=C(O)c1ccc(=O)n(-c2ccccc2)c1` [5-Carboxy-Pirfenidone, 5 carboxy-pirfenidone], the “Ratio of Cmax on Day 11 to the Cmax on Day 1, mean (95% CI)” value in data set [1] (Day 11 post-fluvoxamine vs Day 1 pre-fluvoxamine, all subjects) is 0.369 (0.349-0.390). Moreover, in data set [1] (Day 11 vs Day 1), the “Effect of fluvoxamine co-administration on AUC0-∞ (significance, paired t-test)” value is “not a statistically significant effect”. In addition, the “Ratio of Day 11 AUC0-∞ to Day 1 AUC0-∞, Mean (SD)” value in data set [1] (Nonsmokers, N 25) is listed as 1.05 (0.114); in data set [1] (Smokers, N 26) it was 1.12 (0.0951). The “Ratio of Day 11 AUC0-∞ to Day 1 AUC0-∞, Median (25th-75th)” value is recorded as 1.03 (0.978-1.11) in data set [1] (Nonsmokers, N 25) and 1.13 (1.04-1.19) in data set [1] (Smokers, N 26). For the same molecule, the results for the “AUC0-∞, Mean (SD)” value in data set [1] (Study Day 1: Pre-Fluvoxamine) and in data set [1] (setting [3]) were 29.3 (8.22) mg · hr/L and 31.7 (8.96) mg · hr/L, respectively. The “AUC0-∞, Median (25th-75th)” value in data set [1] (Study Day 1: Pre-Fluvoxamine) is given as 26.9 (22.0-33.7) mg · hr/L; in data set [1] (setting [3]), 29.4 (25.4-36.5) mg · hr/L.

Turning to `Cc1ccc(=O)n(-c2ccccc2)c1` [Pirfenidone, 5-methyl-1-phenyl-2-(1H)-pyridone], the “Share of pirfenidone metabolism by each other CYP” value in data set [2] is below 13%. Further, at CYP1A2, the “Share of pirfenidone metabolism by CYP1A2” value is “approx 48%”.
